Where a name gives a salt, the structure may show the parent alone. Read-outs that look alike come from different tables or passages of the source.
Key:
HeLa cells = experiment: Proliferation assay (HeLa cell line); type: cell-based; conditions: read-out: Biological Assay 2: Proliferation assay (HeLa cell line) median IC50
Procedure: Cultivated tumor cells (cells were ordered from ATCC, except HeLa-MaTu and HeLa-MaTu-ADR, which were ordered from EPO-GmbH, Berlin) were plated at a density of 1000 to 5000 cells/well, depending on the growth rate of the respective cell line, in a 96-well multititer plate in 200 μL of their respective growth medium supplemented 10% fetal calf serum. After 24 hours, the cells of one plate (zero-point plate) were stained with crystal violet (see below), while the medium of the other plates was replaced by fresh culture medium (200 μl), to which the test substances were added in various concentrations (0 μM, as well as in the range of 0.001-10 μM; the final concentration of the solvent dimethyl sulfoxide was 0.5%). The cells were incubated for 4 days in the presence of test substances. Cell proliferation was determined by staining the cells with crystal violet: the cells were fixed by adding 20 μl/measuring point of an 11% glutaric aldehyde solution for 15 minutes at room temperature. After three washing cycles of the fixed cells with water, the plates were dried at room temperature. The cells were stained by adding 100 μl/measuring point of a 0.1% crystal violet solution (pH 3.0). After three washing cycles of the stained cells with water, the plates were dried at room temperature. The dye was dissolved by adding 100 μl/measuring point of a 10% acetic acid solution. […] The change of cell number, in percent, was calculated by normalization of the measured values to the aborbtion values of the zero-point plate (=0%) and the absorbtion of the untreated (0 μm) cells (=100%). The IC50 values were determined by means of a 4 parameter fit using the company's own software.

[1] = target: catalytic domain of human Bub1 (amino acids 704-1085) (Homo sapiens (Human), UniProt O43683); experiment: Bub1 kinase assay (TR-FRET); type: biochemical; conditions: 10 μM ATP, 1 μM peptide substrate; read-out: Biological Assay 1: Bub1 kinase assay median IC50
Chain of catalytic domain of human Bub1 (amino acids 704-1085) (O43683 704-1085): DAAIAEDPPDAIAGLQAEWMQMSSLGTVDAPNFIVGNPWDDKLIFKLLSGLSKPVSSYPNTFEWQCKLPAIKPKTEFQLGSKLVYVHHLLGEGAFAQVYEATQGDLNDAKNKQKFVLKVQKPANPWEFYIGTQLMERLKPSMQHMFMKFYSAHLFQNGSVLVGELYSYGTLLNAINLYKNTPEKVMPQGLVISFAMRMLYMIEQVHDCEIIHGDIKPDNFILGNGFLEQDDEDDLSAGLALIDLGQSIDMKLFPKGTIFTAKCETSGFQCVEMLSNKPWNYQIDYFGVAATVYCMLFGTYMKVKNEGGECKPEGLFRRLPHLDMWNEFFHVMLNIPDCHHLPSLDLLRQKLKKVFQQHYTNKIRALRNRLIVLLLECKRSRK
Procedure: To this end, 100-fold concentrated compound solutions (in DMSO) were previously prepared by serial dilution (1:3.4) of 2 mM stocks in a clear low volume 384-well source microtiter plate (Greiner Bio-One, Frickenhausen, Germany), from which 50 nl of compounds were transferred into a black low volume test microtiter plate from the same supplier. […] The resulting mixture (5 μl final volume) was incubated at 22° C. during 60 min., and the reaction was stopped by the addition of 5 μl of an aqueous EDTA-solution (50 mM EDTA, in 100 mM HEPES pH 7.5 and 0.2% (w/v) bovine serum albumin) which also contained the TR-FRET detection reagents (0.2 μM streptavidin-XL665 [Cisbio Bioassays, Codolet, France] and 1 nM anti-phosho-Serine antibody [Merck Millipore, cat. #35-001] and 0.4 nM LANCE EU-W1024 labeled anti-mouse IgG antibody [Perkin-Elmer, product no. AD0077, alternatively a Terbium-cryptate-labeled anti-mouse IgG antibody from Cisbio Bioassays can be used]). The stopped reaction mixture was further incubated 1 h at 22° C. in order to allow the formation of complexes between peptides and detection reagents. Subsequently, the amount of product was evaluated by measurement of the resonance energy transfer from the Eu-chelate-antlbody complex recognizing the Phosphoserlne residue to the streptavidin-XL665 bound to the biotin moiety of the peptide. […] IC50 values were calculated by fitting the normalized inhibition data to a 4-parameter logistic equation (Minimum, Maximum, IC50, Hill; Y=Max+(Min−Max)/(1+(X/IC50)Hill)) using a Bayer-proprietary analysis software.

[2] = Homo sapiens, 96 h, 4 days, crystal violet

IC50 [1]	IC50 (HeLa cells; [2])	IC50 (HeLa cells; 4 days, crystal violet)	Compound	IC50 (HeLa cells; Homo sapiens, 96 h)
10 nM	≥ 10000 nM	–	CCOc1cc(F)c(Cn2nc(-c3ncc(OCC(F)(F)F)c(Nc4ccncc4)n3)c3ccccc32)c(F)c1 [Example 11-2, 2-[1-(4-ethoxy-2,6-difluorobenzyl)-1H-indazol-3-yl]-N-(pyridin-4-yl)-5-(2,2,2-trifluoroethoxy) pyrimidin-4-amine]	–
17 nM	≥ 10000 nM	–	NC(=O)c1cnccc1Nc1nc(-c2nn(Cc3ccccc3F)c3ccccc23)ncc1O [Example 30-1, 4-({2-[1-(2-fluorobenzyl)-1H-indazol-3-yl]-5-hydroxypyrimidin-4-yl}amino)pyridine-3-carboxamide]	–
5.4 nM	–	≥ 10000 nM	CCCc1ccc(Cn2nc(-c3ncc(OC)c(Nc4ccncc4C(N)=O)n3)c3ccccc32)cc1 [Example 25-2]	–
240 nM	≥ 10000 nM	–	COc1cnc(-c2nn(Cc3cccc(C(C)(C)CO)c3)c3ccccc23)nc1Nc1ccncc1 [Example 8-3, 2-[3-({3-[5-methoxy-4-(pyridin-4-ylamino)pyrimidin-2-yl]-1H-indazol-1-yl}methyl)phenyl]-2-methylpropan-1-ol]	–
5.7 nM	–	1700 nM	CCOc1cc(F)c(Cn2nc(-c3ncc(OCCO)c(Nc4ccncc4)n3)c3ccccc32)c(F)c1 [Example 15-3, 2-({2-[1-(4-ethoxy-2,6-difluorobenzyl)-1H-indazol-3-yl]-4-(pyridin-4-ylamino)pyrimidin-5-yl}oxy)ethanol hydrochloride (1:1)]	–
48 nM	≥ 10000 nM	–	Oc1cnc(-c2nn(Cc3ccc(F)cc3)c3ccccc23)nc1Nc1ccncc1 [Example 3-4, 2-[1-(4-fluorobenzyl)-1H-indazol-3-yl]-4-(pyridin-4-ylamino) pyrimidin-5-ol]	–
9.3 nM	4900 nM	–	CCOc1cc(F)c(Cn2nc(-c3ncc(OCCNC(=O)OC(C)(C)C)c(Nc4ccncc4)n3)c3ccccc32)c(F)c1 [Example 4-23, tert-butyl [2-({2-[1-(4-ethoxy-2,6-difluorobenzyl)-1H-indazol-3-yl]-4-(pyridin-4-ylamino)pyrimidin-5-yl}oxy)ethyl]carbamate]	–
170 nM	≥ 10000 nM	–	CCOc1cc(F)c(Cn2nc(-c3nccc(N(CCO)c4ccncc4)n3)c3ccccc32)c(F)c1 [Example 17-1, 2-[{2-[1-(4-ethoxy-2,6-difluorobenzyl)-1H-indazol-3-yl]pyrimidin-4-yl}(pyridin-4-yl)amino]ethanol]	–
28 nM	≥ 10000 nM	–	COc1cnc(-c2nn(Cc3cc(F)ccc3Cl)c3ccccc23)nc1Nc1ccncc1 [Example 2-31-1, 2-[1-(2-chloro-5-fluorobenzyl)-1H-indazol-3-yl]-5-methoxy-N-(pyridin-4-yl)pyrimidin-4-amine]	–
360 nM	9600 nM	–	CCOc1cc(F)c(Cn2nc(-c3ncc(O)c(N(c4ccncc4)C(F)F)n3)c3ccccc32)c(F)c1 [Example 10-3, 4-[(difluoromethyl) (pyridin-4-yl)amino]-2-[1-(4-ethoxy-2,6-difluorobenzyl)-1H-indazol-3-yl]pyrimidin-5-ol]	–
83 nM	–	3400 nM	CCOc1cc(F)c(Cn2nc(-c3ncc(OC)c(Nc4ccncc4)n3)c3ccccc32)c(OC)c1 [Example 2-53-1]	–
1400 nM	≥ 10000 nM	–	COc1cnc(-c2nn(Cc3ccccc3F)c3ccccc23)nc1N(C)c1ccncc1 [Example 23-1, 2-[1-(2-fluorobenzyl)-1H-indazol-3-yl]-5-methoxy-N-methyl-N-(pyridin-4-yl)pyrimidin-4-amine]	–
750 nM	≥ 10000 nM	–	COc1cnc(-c2nn(Cc3c(Cl)ccc(C(=O)NCCO)c3Cl)c3ccccc23)nc1Nc1ccncc1 [Example 20-4, 2,4-dichloro-N-(2-hydroxyethyl)-3-({3-[5-methoxy-4-(pyridin-4-yla-mino)pyrimidin-2-yl]-1H-indazol-1-yl}methyl) benzamide]	–
23 nM	3500 nM	–	CCOc1cc(F)c(Cn2nc(-c3nccc(N(C(=O)COC)c4ccncc4)n3)c3ccccc32)c(F)c1 [Example 16-2, N-{2-[1-(4-ethoxy-2,6-difluorobenzyl)-1H-indazol-3-yl]pyrimidin-4-yl}-2-methoxy-N-(pyridin-4-yl)acetamide]	–
2400 nM	–	≥ 10000 nM	CCOc1cc(F)c(Cn2nc(-c3nccc(N(CC4(CO)COC4)c4ccncc4)n3)c3ccccc32)c(F)c1 [Example 17-2]	–
38 nM	≥ 10000 nM	–	COc1cnc(-c2nn(Cc3ccc(C#N)cc3F)c3ccccc23)nc1Nc1ccncc1 [Example 2-33-1, 3-fluoro-4-({3-[5-methoxy-4-(pyridin-4-ylamino)pyrimidin-2-yl]-1H-indazol-1-yl}methyl)benzonitrile]	–
12 nM	2000 nM	–	CCOc1cc(F)c(Cn2nc(-c3ncc(OC(F)F)c(Nc4ccncc4)n3)c3ccccc32)c(F)c1 [Example 10-1, 5-(difluoromethoxy)-2-[1-(4-ethoxy-2,6-difluorobenzyl)-1H-indazol-3-yl]-N-(pyridin-4 yl)pyrimidin-4-amine]	–
670 nM	–	≥ 10000 nM	CCOc1cc(F)c(Cn2nc(-c3ncc(OC)c(Nc4c(F)cncc4F)n3)c3ccccc32)c(F)c1 [Example 39-2]	–
12 nM	≥ 10000 nM	–	CCOC(=O)COc1cnc(-c2nn(Cc3c(F)cc(OCC)cc3F)c3ccccc23)nc1Nc1ccncc1 [Example 4-14, ethyl ({2-[1-(4-ethoxy-2,6-difluorobenzyl)-1H-indazol-3-yl]-4-(pyridin-4-ylamino)pyrimidin-5-yl}oxy)acetate]	–

Compound	IC50 [1]	IC50 (HeLa cells; [2])	IC50 (HeLa cells; 4 days, crystal violet)	IC50 (HeLa cells; Homo sapiens, 96 h)
COc1cnc(-c2nn(Cc3ccccc3Br)c3ccccc23)nc1Nc1ccncc1 [Example 2-21-1, 2-[1-(2-bromobenzyl)-1H-indazol-3-yl]-5-methoxy-N-(pyridin-4-yl)pyrimidin-4-amine]	12 nM	–	–	≥ 10000 nM
CCOc1cc(F)c(Cn2nc(-c3ncc(O)c(Nc4ccncc4)n3)c3ccccc32)c(F)c1 [Example 3-1, 2-[1-(4-ethoxy-2,6-difluorobenzyl)-1H-indazol-3-yl]-4-(pyridin-4-ylamino)pyrimidin-5-ol]	4.7 nM	–	–	≥ 10000 nM
Oc1cnc(-c2nn(Cc3ccccc3F)c3ccccc23)nc1Nc1ccncc1 [Example 3-3, 2-[1-(2-fluorobenzyl)-1H-indazol-3-yl]-4-(pyridin-4-ylamino)pyrimidin-5-ol]	15 nM	–	–	≥ 10000 nM
COc1cnc(-c2nn(Cc3c(F)cccc3F)c3ccccc23)nc1Nc1ccncc1 [Example 2-7-1, 2-[1-(2,6-difluorobenzyl)-1H-indazol-3-yl]-5-methoxy-N-(pyridin-4-yl)pyrimidin-4-amine]	4.8 nM	–	–	≥ 10000 nM
COc1cnc(-c2nn(Cc3cccc4c3OCCCO4)c3ccccc23)nc1Nc1ccncc1 [Example 2-6-3, 2-[1-(3,4-dihydro-2H-1,5-benzo-dioxepin-6-ylmethyl)-1H-indazol-3-yl]-5-methoxy-N-(pyridin-4-yl)pyrimidin-4-amine]	59 nM	–	–	≥ 10000 nM
OC[C@@H](O)COc1cnc(-c2nn(Cc3ccccc3F)c3ccccc23)nc1Nc1ccncc1 [Example 12-2, (2R)-3-({2-[1-(2-fluorobenzyl)-1H-indazol-3-yl]-4-(pyridin-4-ylamino)pyrimidin-5-yl}oxy)propane-1,2-diol]	4.6 nM	–	–	≥ 10000 nM
COc1cnc(-c2nn(Cc3c(F)cc(OC(F)F)cc3F)c3ccccc23)nc1Nc1ccncc1 [Example 2-39-1, 2-{1-[4-(difluoromethoxy)-2,6-difluorobenzyl]-1H-indazol-3-yl}-5-methoxy-N-(pyridin-4-yl)pyrimidin-4-amine]	5.6 nM	–	–	3600 nM
COc1ccc(Cn2nc(-c3ncc(O)c(Nc4ccncc4)n3)c3ccccc32)cc1 [Example 3-2, 2-[1-(4-methoxybenzyl)-1H-indazol-3-yl]-4-(pyridin-4-ylamino) pyrimidin-5-ol]	9.8 nM	–	–	≥ 10000 nM
